As a reminder, the IC50 is the point on the concentration scale where inhibition reaches its midpoint.

The results in this text go back to patent publication US8420657B2 (Novartis AG, priority 2008, dated 2013).

The subject of assay [1] is JAK2-dependent nuclear translocation of STAT5-GFP in U-2 OS osteosarcoma cells. As to the kind of experiment: STAT5 nuclear translocation assay (Cellomics), rhEpo stimulated U-2 OS STAT5-GFP cells. It counts as cell-based. The settings on record: Homo sapiens, U2OS; STAT5 translocation pathway. The method in brief:
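U-2 OS cells stably expressing STAT5a-GFP and EpoR pre-treated with compound (final 10 μM to 0.003 μM, 0.1% DMSO) for 30 min at 37° C., then stimulated 1 h with 5 U/ml rhEpo. Nuclear-cytoplasmic GFP differential quantified by automated imaging (≥1000 cells/well, Hoechst nuclear mask). IC50 from % translocation normalized to untreated and DMSO-stimulated controls.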

A further assay has as its target T1, GST-JAK2(808-1132) (Homo sapiens, UniProt O60674).
T1 construct: GST-JAK2(808-1132); purchased Invitrogen (Carlsbad, USA) #4288
The experiment in a line: JAK2 kinase assay (Caliper mobility shift, LabChip 3000). The format is biochemical. The essentials:
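Eight-point compound series (final 10–0.003 μM) tested on purchased GST-JAK2 kinase domain (808-1132). Peptide FITC-JAK3tide plus ATP reacted 60 min, 30 °C, then quenched with EDTA; turnover from charge-based separation of substrate and product.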

T1 sequence (O60674 808-1132): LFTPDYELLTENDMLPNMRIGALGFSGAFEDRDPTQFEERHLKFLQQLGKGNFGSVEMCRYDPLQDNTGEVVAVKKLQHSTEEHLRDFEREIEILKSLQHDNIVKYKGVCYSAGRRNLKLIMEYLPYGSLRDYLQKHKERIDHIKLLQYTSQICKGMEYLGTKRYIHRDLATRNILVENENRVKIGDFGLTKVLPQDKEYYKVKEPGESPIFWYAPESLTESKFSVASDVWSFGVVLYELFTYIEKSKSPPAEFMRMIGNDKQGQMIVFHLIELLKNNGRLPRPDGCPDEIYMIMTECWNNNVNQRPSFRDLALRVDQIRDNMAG

For `CCN1CCOC[C@@H]1c1ccc(Nc2ncc3ccn(-c4cc(F)c(CN5CCOCC5)c(F)c4)c3n2)cc1` [Example 508, [7-(3,5-Difluoro-4-morpholin-4-ylmethyl-phenyl)-7H-pyrrolo[2,3-d]pyrimidin-2-yl]-[4-((S)-4-ethyl-morpholin-3-yl)-phenyl]-amine], the IC50 was determined as 14.8 nM in assay [1] and 4.1 nM on GST-JAK2(808-1132).

In the case of `Cc1ccc(Nc2ncc3ccn(-c4cc(F)c(CN5CCOCC5)c(F)c4)c3n2)cc1Cn1cnnc1` [Example 414, [7-(3,5-Difluoro-4-morpholin-4-ylmethyl-phenyl)-7H-pyrrolo[2,3-d]pyrimidin-2-yl]-(4-methyl-3-[1,2,4]triazol-4-ylmethyl-phenyl)-amine], the IC50 in assay [1] was 4.2 nM; on GST-JAK2(808-1132), at most 3 nM.

On to `C[C@@H]1CN(Cc2ccc(Nc3ncc4ccn(-c5ccc(S(=O)(=O)NC(C)(C)C)cc5)c4n3)cc2)C[C@H](C)N1` [Example 464, N-tert-Butyl-4-{2-[4-(cis-3,5-dimethyl-piperazin-1-ylmethyl)-phenylamino]-pyrrolo[2,3-d]pyrimidin-7-yl}-benzenesulfonamide], for which the values for the IC50 (in assay [1]; on GST-JAK2(808-1132)) were 59 nM and at most 3 nM, respectively.

Take `C[C@@H]1CN(Cc2ccc(Nc3ncc4ccn(-c5ccc6c(c5)CCC(=O)N6)c4n3)cc2)C[C@H](C)N1` [Example 468, 6-{2-[4-(cis-3,5-Dimethyl-piperazin-1-ylmethyl)-phenylamino]-pyrrolo[2,3-d]pyrimidin-7-yl}-3,4-dihydro-1H-quinolin-2-one]: the figures for the IC50 (in assay [1]; on GST-JAK2(808-1132)) were 14 nM and at most 3 nM, respectively.

With `Cc1ccc(Nc2ncc3ccn(-c4cc(F)c(CN5CCOCC5)c(F)c4)c3n2)cc1C(=O)N1C[C@@H](C)N[C@@H](C)C1` [Example 452, {5-[7-(3,5-Difluoro-4-morpholin-4-ylmethyl-phenyl)-7H-pyrrolo[2,3-d]pyrimidin-2-ylamino]-2-methyl-phenyl}-(cis-3,5-dimethyl-piperazin-1-yl)-methanone], the IC50 is 79.5 nM in assay [1] and 6.2 nM on GST-JAK2(808-1132).

As to `Cc1ccc(Nc2ncc3ccn(-c4cc(F)c(CN5CCS(=O)(=O)CC5)c(F)c4)c3n2)cc1CN1CCN(C)C(=O)C1` [Example 422, 4-(5-{7-[4-(1,1-Dioxido-thiomorpholin-4-ylmethyl)-3,5-difluoro-phenyl]-7H-pyrrolo[2,3-d]pyrimidin-2-ylamino}-2-methyl-benzyl)-1-methyl-piperazin-2-one], the IC50 in assay [1] was 5.7 nM; at GST-JAK2(808-1132) it was at most 3 nM.

As to `Fc1cc(-n2ccc3cnc(Nc4ccc(OC5CCOCC5)nc4)nc32)cc(F)c1CN1CCOCC1` [Example 515, [7-(3,5-Difluoro-4-morpholin-4-ylmethyl-phenyl)-7H-pyrrolo[2,3-d]pyrimidin-2-yl]-[6-(tetrahydro-pyran-4-yloxy)-pyridin-3-yl]-amine], the values for the IC50 (in assay [1]; on GST-JAK2(808-1132)) were 54 nM and at most 3 nM, respectively.

In the case of `C[C@@H]1CN(Cc2ccc(Nc3ncc4ccn(-c5cc(F)c(CN6CCCC6=O)c(F)c5)c4n3)cc2)C[C@H](C)N1` [Example 462, 1-(4-{2-[4-(cis-3,5-Dimethyl-piperazin-1-ylmethyl)-phenylamino]-pyrrolo[2,3-d]pyrimidin-7-yl}-2,6-difluoro-benzyl)-pyrrolidin-2-one], the IC50 in assay [1] is 51 nM; on GST-JAK2(808-1132), at most 3 nM.

Take `OC1CN(Cc2cc(Nc3ncc4ccn(-c5cc(F)c(CN6CCOCC6)c(F)c5)c4n3)ccc2Cl)C1` [Example 400, 1-{2-Chloro-5-[7-(3,5-difluoro-4-morpholin-4-ylmethyl-phenyl)-7H-pyrrolo[2,3-d]pyrimidin-2-ylamino]-benzyl}-azetidin-3-ol]: the IC50 in assay [1] is 1.7 nM; at GST-JAK2(808-1132), 7 nM.

Regarding `Cc1ccc(Nc2ncc3ccn(-c4cc(F)c(CN5CCOCC5)c(F)c4)c3n2)cc1CN1CCN(C)CC1=O` [Example 415, 1-{5-[7-(3,5-Difluoro-4-morpholin-4-ylmethyl-phenyl)-7H-pyrrolo[2,3-d]pyrimidin-2-ylamino]-2-methyl-benzyl}-4-methyl-piperazin-2-one], the IC50 in assay [1] is 6.9 nM; at GST-JAK2(808-1132), at most 3 nM.

For `Cc1ccc(Nc2ncc3ccn(-c4cc(F)c(CN5CCOCC5)c(F)c4)c3n2)cc1Cn1cccn1` [Example 413, [7-(3,5-Difluoro-4-morpholin-4-ylmethyl-phenyl)-7H-pyrrolo[2,3-d]pyrimidin-2-yl]-(4-methyl-3-pyrazol-1-ylmethyl-phenyl)-amine], the values for the 50% inhibitory concentration (IC50) (in assay [1]; at GST-JAK2(808-1132)) were 28.5 nM and at most 3 nM, respectively.

Regarding `Cc1ccc(Nc2ncc3ccn(-c4ccc(C(=O)N5CCOCC5)c(F)c4)c3n2)cc1CN1C[C@@H](C)N[C@@H](C)C1` [Example 367, (4-{2-[3-(cis-3,5-Dimethyl-piperazin-1-ylmethyl)-4-methyl-phenylamino]-pyrrolo[2,3-d]pyrimidin-7-yl}-2-fluoro-phenyl)-morpholin-4-yl-methanone], the values for the IC50 (in assay [1]; on GST-JAK2(808-1132)) were 144 nM and 8.4 nM, respectively.

As for `Cc1ccc(Nc2ncc3ccn(-c4cc(F)c(CN5CCS(=O)(=O)CC5)c(F)c4)c3n2)cc1CN1CCN(C)CC1` [Example 421, {7-[4-(1,1-Dioxido-thiomorpholin-4-ylmethyl)-3,5-difluoro-phenyl]-7H-pyrrolo[2,3-d]pyrimidin-2-yl}-[4-methyl-3-(4-methyl-piperazin-1-ylmethyl)-phenyl]-amine], the results for the half-inhibitory concentration (IC50) (in assay [1]; on GST-JAK2(808-1132)) were 2.7 nM and at most 3 nM, respectively.

In the case of `Fc1cc(-n2ccc3cnc(Nc4ccc(OCCN5CCOCC5)nc4)nc32)cc(F)c1CN1CCOCC1` [Example 513, [7-(3,5-Difluoro-4-morpholin-4-ylmethyl-phenyl)-7H-pyrrolo[2,3-d]pyrimidin-2-yl]-[6-(2-morpholin-4-yl-ethoxy)-pyridin-3-yl]-amine], the IC50 in assay [1] came out at 116 nM; at GST-JAK2(808-1132), 4.6 nM.

Take `C[C@@H]1CN(c2ncc(Nc3ncc4ccn(-c5cc(F)c(CN6CCS(=O)(=O)CC6)c(F)c5)c4n3)cc2Cl)C[C@H](C)N1` [Example 430, [5-Chloro-6-(cis-3,5-dimethyl-piperazin-1-yl)-pyridin-3-yl]-{7-[4-(1,1-dioxido-thiomorpholin-4-ylmethyl)-3,5-difluoro-phenyl]-7H-pyrrolo[2,3-d]pyrimidin-2-yl}-amine]: the IC50 was 3.6 nM in assay [1] and at most 3 nM at GST-JAK2(808-1132).

Turning to `Cc1ccc(Nc2ncc3ccn(-c4cc(F)c(CN5CCOCC5)c(F)c4)c3n2)cc1CN1CCC(O)C1` (racemic) [Example 411, 1-{5-[7-(3,5-Difluoro-4-morpholin-4-ylmethyl-phenyl)-7H-pyrrolo[2,3-d]pyrimidin-2-ylamino]-2-methyl-benzyl}-pyrrolidin-3-ol], the IC50 in assay [1] was 2.6 nM; on GST-JAK2(808-1132), at most 3 nM.

In the case of `C[C@@H]1CN(Cc2ccc(Nc3ncc4ccn(-c5cc(F)c(CN6CCOCC6=O)c(F)c5)c4n3)cc2)C[C@H](C)N1` [Example 484, 4-(4-{2-[4-(cis-3,5-Dimethyl-piperazin-1-ylmethyl)-phenylamino]-pyrrolo[2,3-d]pyrimidin-7-yl}-2,6-difluoro-benzyl)-morpholin-3-one], the IC50 in assay [1] is 67 nM; on GST-JAK2(808-1132), at most 3 nM.

For `Cc1ccc(Nc2ncc3ccn(-c4cc(F)c(CN5CCOCC5)c(F)c4)c3n2)cc1CN1CC(O)C1` [Example 394, 1-{5-[7-(3,5-Difluoro-4-morpholin-4-ylmethyl-phenyl)-7H-pyrrolo[2,3-d]pyrimidin-2-ylamino]-2-methyl-benzyl}-azetidin-3-ol], the IC50 in assay [1] is 1.6 nM; on GST-JAK2(808-1132), at most 3 nM.

`Fc1cc(-n2ccc3cnc(Nc4ccc([C@H]5CNCCN5)cc4)nc32)cc(F)c1CN1CCOCC1` [Example 474, [7-(3,5-Difluoro-4-morpholin-4-ylmethyl-phenyl)-7H-pyrrolo[2,3-d]pyrimidin-2-yl]-((S)-4-piperazin-2-yl-phenyl)-amine]: the figures for the IC50 (in assay [1]; at GST-JAK2(808-1132)) were 8.6 nM and at most 3 nM, respectively.

With `Cc1cc(Nc2ncc3ccn(-c4cc(F)c(CN5CCOCC5)c(F)c4)c3n2)cnc1N1C[C@@H](C)N[C@@H](C)C1` [Example 510, [7-(3,5-Difluoro-4-morpholin-4-ylmethyl-phenyl)-7H-pyrrolo[2,3-d]pyrimidin-2-yl]-[6-(cis-3,5-dimethyl-piperazin-1-yl)-5-methyl-pyridin-3-yl]-amine], the values for the IC50 (in assay [1]; on GST-JAK2(808-1132)) were 1 nM and at most 3 nM, respectively.

For the compound `Fc1cc(-n2ccc3cnc(Nc4ccnc(CN5CCC(F)(F)C5)c4)nc32)cc(F)c1CN1CCOCC1` [Example 402, [7-(3,5-Difluoro-4-morpholin-4-ylmethyl-phenyl)-7H-pyrrolo[2,3-d]pyrimidin-2-yl]-[2-(3,3-difluoro-pyrrolidin-1-ylmethyl)-pyridin-4-yl]-amine], the IC50 is 1370 nM in assay [1] and at most 3 nM at GST-JAK2(808-1132).

For the compound `COC1CN(Cc2c(F)cc(-n3ccc4cnc(Nc5ccc(C)c(CN6CCNCC6)c5)nc43)cc2F)C1` [Example 482, {7-[3,5-Difluoro-4-(3-methoxy-azetidin-1-ylmethyl)-phenyl]-7H-pyrrolo[2,3-d]pyrimidin-2-yl}-(4-methyl-3-piperazin-1-ylmethyl-phenyl)-amine], the IC50 is 150 nM in assay [1] and at most 3 nM at GST-JAK2(808-1132).

Take `Cc1ccc(Nc2ncc3ccn(-c4cc(F)c(CN5CCOCC5)c(F)c4)c3n2)cc1CN1CCN(C2CC2)CC1` [Example 365, [3-(4-Cyclopropyl-piperazin-1-ylmethyl)-4-methyl-phenyl]-[7-(3,5-difluoro-4-morpholin-4-ylmethyl-phenyl)-7H-pyrrolo[2,3-d]pyrimidin-2-yl]-amine]: the values for the IC50 (in assay [1]; on GST-JAK2(808-1132)) were 43 nM and 4.6 nM, respectively.
